Four molecules from patent US20160271513A1, “DRYING TECHNIQUES FOR MICROFLUIDIC AND OTHER SYSTEMS” (PRESIDENT AND FELLOWS OF HARVARD COLLEGE, priority 2013, published 2016) can be followed below.

The conditions of series [1]: room temperature.
Procedure: To calculate the time available for crystalline nuclei to form, the saturation concentration of NaCl was measured in water at room temperature to be 6.3 mol/l.
Series [2] is described as follows: Structure and storage stability of spray-dried drug nanoparticles by X-ray diffraction. In kind it is physicochemical. As to the method: While the characteristic size below which particles were entirely amorphous is system-specific, the suppression of nucleation in small droplets relies on a generally applicable physical principle. […] To test this expectation, the structure of spray-dried clotrimazole, estradiol, and danazol was examined using X-ray diffraction (XRD). To keep the nucleation time the same, they were dissolved at 10% of their saturation concentration. In agreement with the above, these spray-dried drug nanoparticles were amorphous.
Production of amorphous drugs may require the addition of excipients. However, despite the presence of excipients, these drugs tend to crystallize with time leading to a change in their dissolution kinetics; this prevents their application in industry. […] These drugs all had glass transition temperatures, Tg, above room temperature; they were therefore glasses at room temperature.
XRD. X-ray diffraction was performed on spray-dried nanoparticles collected onto a one-side polished (100) Si wafer for 11 h. Measurements were acquired on a XDS2000 instrument (Scintac Inc.) using a Cu Kα (K alpha) source with a wavelength λ=0.154056 nm. The angle 2θ was varied between 2 and 70° at a rate of 1°/min.
It was expected to crystallize over time if stored at room temperature even if it is initially fully amorphous.
To test if the nebulator also allowed production of amorphous nanoparticles from materials with a Tg […] room temperature, which would be a glass at room temperature, clotrimazole, estradiol, and danazol, all poorly water soluble drugs with Tgs above 20° C., were spry dried. The size of the spray dried nanoparticles was determined by the initial solute concentration and the initial drop size. To ensure similar sizes of the spray dried nanoparticles, the initial solute concentration was fixed to 5 mg/ml. […] Thus, the nebulator allowed formulation of poorly water soluble drugs as amorphous nanoparticles.
To ease the handling drugs, fenofibrate was co-spray dried with different types of excipients. […] Four different types of Pluronics were compared: F68 and F127 are solids at room temperature and Pluronics P84 and P104 are pastes at room temperature.
By analogy to Pluronics, drugs spray dried from solutions containing equal weights of drugs and excipients were crystalline. By contrast, increasing the weight fraction of PVP five-fold results in XRD-amorphous danazol nanoparticles, in agreement to danazol nanoparticles formulated using the microfluidic spray drier.
To maintain the stability of spray dried amorphous nanoparticles and facilitate their handling by embedding them in an excipient matrix, PVP was deposited on a Si-wafer and subsequently drugs were spray dried into the PVP matrix. […] However, because excipients were not required to make the drug amorphous but rather to ease their handling, this procedure is generally applicable to the formulation of many different types of drugs, by contrast to the solid dispersions where the appropriate excipients must be selected for each system individually. Thus, the nebulator used in this example allowed the formulation of amorphous drug nanoparticles that optionally could be sprayed into an excipient matrix to facilitate their handling.

Series [3] in a line: Crystalline fraction of spray-dried nanoparticles by differential scanning calorimetry. In kind it is physicochemical. As to the method:
The size of inorganic nanoparticles can influence their structure.
DSC. Differential scanning calorimetry was performed on spray-dried nanoparticles that are collected in an aluminium based Tzero DSC pan. To obtain sufficient amounts of samples, nanoparticles were collected for 11 h before being sealed in the DSC pan with a Tzero Hermetic Lid (TA Instruments). DSC was measured on a DSC Q200 at a nitrogen flow rate of 50 ml/min (TA instruments); the temperature was increased from 40° C. to 85° C. at a rate of 1° C./min and subsequently the sample was cooled to 25° C. at the same rate. To quantify the amount of nanoparticles, thermogravimetry analysis (TGA) was performed on these samples after completing the DSC analysis. For this, the hermetically sealed pans were opened and TGA was performed on these samples by increasing the temperature from 25° C. to 400° C. at a rate of 10° C./min under a N2 flow of 10 ml/min (Q5000, TA instrument). The absolute mass loss was measured between 100° C. and 300° C. and the DSC data was normalized accordingly.

Setting [4] is: spray-dried from ethanol without excipients, 0.28 MPa.
[5] abbreviates: spray-dried without excipients, stored under ambient conditions.

Consider `[Cl-].[Na+]` [NaCl], for which the “saturation concentration of NaCl in water” value in series [1] is 6.3 mol/L.

In the case of `C#C[C@]1(O)CC[C@H]2[C@@H]3CCC4=Cc5oncc5C[C@]4(C)[C@H]3CC[C@@]21C` [danazol], the “structure of spray-dried nanoparticles (XRD)” value in series [2] (co-spray dried with PVP, PVP five times the drug) was “XRD-amorphous”; in series [2] (co-spray dried with Pluronics F68, F127, P84 or P104, equal weights) it was “contain a significant fraction of crystalline regions”; in series [2] (pure drug spray dried onto a PVP matrix) it was “XRD-amorphous”; in series [2] (setting [4]), “amorphous”. The crystallization on storage result is listed as “this fraction markedly increases after storing the sample for two weeks under ambient conditions” in series [2] (co-spray dried with equal weight of Pluronics (F68, F127, P84, P104), two weeks under ambient conditions) and “did not crystallize if stored under ambient conditions for at least four weeks” in series [2] (setting [5]).

Consider `Clc1ccccc1C(c1ccccc1)(c1ccccc1)n1ccnc1` [clotrimazole], for which the “structure of spray-dried nanoparticles (XRD)” value in series [2] (setting [4]) is given as “amorphous”. The crystallization on storage result in series [2] (setting [5]) is reported as “did not crystallize if stored under ambient conditions for at least four weeks”.

Turning to `CC(C)OC(=O)C(C)(C)Oc1ccc(C(=O)c2ccc(Cl)cc2)cc1` [fenofibrate], the “crystalline fraction from area of the melting peak” value in series [3] (25 nm large particles) came to 6 vol %; in series [3] (particles with a diameter of 20 nm) it was 3 vol %.
